Experiment in all cases: Urease production in Christensen urea broth (OD 559 nm)
Assay type in all cases: cell-based

The test system of test [1] is Exophiala heteromorpha (ATCC 28180). Conditions: E. heteromorpha; ½ MIC albendazole; 7 and 12 days, 37 °C. The protocol:
(§1) To verify urease production, three strains: Fonsecaea pedrosoi (CFP 00791) Cladophialophora carrionii (CFP 00910), and Exophiala heteromorpha (ATCC® 28180), corresponding to the three major chromoblastomycosis agents worldwide, were cultured on PDA for seven days and further cultured in Christensen urea broth in the presence and absence of albendazole at a ½ MIC concentration. Candida albicans and Cryptococcus neoformans were used as negative and positive controls of the culture medium, respectively. In brief, fungal suspensions were adjusted to a concentration of 10^6 cells/mL and used for inoculation. A volume of 500 μL of these suspensions were inoculated into 4.5 mL of Christensen urea broth and the tubes were then incubated under agitation (150 rpm) at 37 °C. At the end of seven and 12 days of incubation, the tubes were centrifuged, and a volume of 100 μL of the supernatant was transferred to a 96-well plate; this procedure was performed in triplicate. The absorbances of the samples were read on a SpectraMax plus 384 spectrophotometer (Molecular Devices, San José, CA, USA) at 559 nm, as previously described by Almeida-Paes et al.. Results were analyzed statistically using the two-way ANOVA test with multiple comparisons. p values lower than 0.05 were considered significant.

The test system of test [2] is Cladophialophora carrionii (CFP 00910). Conditions: C. carrionii; ½ MIC albendazole; 7 and 12 days, 37 °C. The method, then:
as §1

The subject of test [3] is Fonsecaea pedrosoi (CFP 00791). Conditions: F. pedrosoi; ½ MIC albendazole; 7 and 12 days, 37 °C. The protocol: as §1

In the case of `CCCSc1ccc2nc(NC(=O)OC)[nH]c2c1` [Albendazole], the urease secretion entry in test [1] is on record as “decrease in urease secretion”; in test [2], “decrease in urease secretion”; in test [3], “increased secretion of urease”.

The values above are taken from PMC10381309 (Journal of Fungi, 2023).
